Measurements: US11712443B2, “17α-monoesters and 17α,21-diesters of cortexolone for use in the treatment of tumors” (COSMO TECHNOLOGIES LTD., priority 2014, dated 2023)

Legend:
LNCaP = assay: ATP-dependent proliferation/viability assay (Cell Titer Glo), 3 days; conditions: 3 days
Description: (§1) The experiment was performed to test and to define the antitumor activity in vitro of cortexolone 17α-benzoate on LNCaP (AR+) and PC3 (AR^−), representative of Prostatic cancer cell lines with Androgen Receptor (AR) positive or negative expression, respectively. The experimental method consisted of: • 1. […] After 24 hours, 10 nM DHT (dihydrotestosterone) with or without anti-androgen compounds, or DMSO vehicle (negative control) was added to the cultures. • 3.
as §1, with “define” for “define the”, “17α-valerate-21-propionate (CB-03-10)” for “17α-benzoate”, “AR” for “Androgen Receptor (AR)”

PC3 = assay: as above; conditions: 3 days
Description: as §1
as §1, with “define” for “define the”, “17α-valerate-21-propionate (CB-03-10)” for “17α-benzoate”, “AR” for “Androgen Receptor (AR)”

MiaPaca2 cells [1] = assay: Apoptosis induction, Annexin V / propidium iodide flow cytometry; assay type: cell-based; conditions: 24 hours; control 11%; FIG. 9
Description: CB-03-10 was evaluated to determine if the mechanism of cytotoxicity on cancer cell lines was mediated by apoptosis and cell cycle arrest. Cancer cell lines were seeded in 6-well flat bottom plates. After 24 hours test compounds or DMSO vehicle (negative control) were added. After an additional 24 hours cells were scraped and stained with fluorescein conjugated Annexin V and propidium iodide and analyzed by flow cytometry.

Caspase 3/7 = assay: Caspase activity assay in MiaPaca2 cells; assay type: cell-based; conditions: 8, 24, 48 hours, FIG. 11
Description: To better analyze the phenomenon the enzymatic activity of Caspase 8 (initiator caspase for Extrinsic Pathway) and Caspase 9 (initiator caspase for Intrinsic Pathway) and of Caspases 3 and 7 (effector caspases) were measured.

[2] = tested on: MiaPaca-2 pancreatic tumor xenograft; assay: Human pancreatic tumor xenograft in nude mice, subcutaneous treatment; assay type: in vivo
Description: The test was carried out comparing the anti-tumor activity of cortexolone 17α-benzoate at two different dosages (8.0 mg/kg, corresponding approximately at 230 μM, and 40 mg/kg, corresponding approximately at 1150 μM), versus the vehicle (i.e. 0.4% (v/v) tween 80 and 0.5% (w/v) carboxymethylcellulose in normal saline) and versus the comparator Cyproterone Acetate at two different dosages (7.4 mg/kg and 37 mg/kg).
1×10^6 MiaPaca-2 cells suspended in matrigel were subcutaneously injected into 6 week old athymic nude mice.
The treatment with the tested compounds, with the vehicle and with the comparative compound, was initiated after the tumor volume has reached 50 mm3 after transplantation. All compounds were injected 100 μL/mouse subcutaneously of low dose solution (approximately 230 μM) or 100 μL/mouse of high dose solution (approximately 1150 μM) of cortexolone 17α-benzoate, vehicle and cyproterone acetate, respectively. Compounds and controls were administered subcutaneously daily for 28 days.
Tumors were measured every 4 days with a digital caliper.
The results are plotted in FIG. 1 as average change in tumor volume relative to the start of treatment. Tumor volume was calculated according to the formula 0.5236(r1)^2(r2) where r1<r2.
The test was carried out comparing the anti-tumor activity of cortexolone 17α-valerate-21-propionate (CB-03-10) at two different dosages (approximately 8.6 mg/kg and 43 mg/kg) versus the vehicle (i.e. 0.4% (v/v) tween 80 and 0.5% (w/v) carboxymethylcellulose in normal saline) and versus the comparator Cyproterone Acetate at two different dosages (7.4 mg/kg and 37 mg/kg).
The treatment with the tested compound, with the vehicle and with the comparative compound was initiated after the tumor has reached a volume of 50 mm3 after implantation, injecting subcutaneously 100 μL/mouse of low dose solution (approximately 230 μM) or 100 μL/mouse of high dose solution (approximately 1150 μM) of cortexolone 17α-valerate-21-propionate (CB-03-10), vehicle and cyproterone acetate, respectively. Compounds and controls were administered subcutaneously daily for 28 days.
The results are plotted in FIG. 2 as average change in tumor volume relative to the start of treatment. Tumor volume was calculated according to the formula 0.5236(r1)^2(r2) where r1<r2.
CPA a well-known anti-androgen was used as control. Briefly 1×10^6 MiaPaca2 cells suspended in matrigel were subcutaneously (SC) injected into 6 week old male athymic nude mice. Tumors were measured every 4 days with a digital caliper. Tumor volume was calculated according to the formula: 0.5236(r1)2(r2) where r1<r2. Treatment with CB-03-10 and controls compounds was initiated after the tumor had reached 50 mm3. Compounds diluted in DMSO/2-hydroxypropyl b-cyclodextrin (vehicle) were injected subcutaneously (SC) daily (100 μL/mouse) at the concentration of 40 mg/Kg daily for 28 consecutive days.

MiaPaca2 cells [3] = assay: Cell cycle arrest, propidium iodide staining; assay type: cell-based; conditions: 24 hours; FIG. 10
Description: Apoptosis can occur at the G1/S or G2/M transition of the cell cycle. Cells were treated with CB-03-10 for 24 hours then fixed with paraformaldehyde and stained with propidium iodide. […] The lack of G1 block indicates no effect on p53. The S & G2/M blocks may indicate activity on cell cycle check point molecules. For S phase, a possible target is the cyclin dependent kinase 2 (CDK2). Gemzar and cisplatin are example drugs that act in S phase. For G2, a possible target is CDK1.

Caspases 8, 9 and 3/7 = assay: Caspase activity assay in LNCaP prostate cancer cells; assay type: cell-based; conditions: 24 hours, FIG. 12
Description: After 24 hours test compounds were added to cells, Gemcitabine (a known pancreatic cancer chemotherapeutic agent) and DMSO were used as positive and negative control, respectively. After 8, 24, & 48 hours incubation with test compounds, cells were lysed in buffer containing the caspase 3/7 or 8 or 9 substrate and a stable luciferase in proprietary buffers. The lysates were transferred to white opaque plates before measuring luminescence in a Tecan S afire instrument. Parallel plates treated identically, were used to determine viable cells. All caspase activities were corrected for the number of viable cells.
Same assay was repeated using LNCaP prostate cancer cell lines (FIG. 12). […] The results are shown in FIG. 12 at 24 hours incubation when the caspase activities peaked.

HT29 = assay: In vitro proliferation, larger cancer cell line panel; conditions: HT29

In the case of CCCCC(=O)O[C@]1(C(=O)COC(=O)CC)CC[C@H]2[C@@H]3CCC4=CC(=O)CC[C@]4(C)[C@H]3CC[C@@]21C [CB-03-10, cortexolone 17α-valerate-21-propionate], the IC50 (LNCaP; Homo sapiens, LNCaP, 72 h, LNCaP (AR+), 10 nM DHT, Examples 1-2 Experiment 1, sigmoidal dose response fit) is reported as 13 µM, the “Therapeutic Index = IC50 resting PBMC/IC50 cancer cell” value (LNCaP; human) is reported as 9 and the “Therapeutic Index = IC50 stimulated PBMC/IC50 cancer cell” value (LNCaP; human) is reported as 9. The IC50 (PC3; Homo sapiens, 72 h, PC3 (AR-), 10 nM DHT, Examples 1-2 Experiment 2, nonlinear regression least squares fit, additional experiments) was 50 µM, the “Therapeutic Index = IC50 resting PBMC/IC50 cancer cell” value (PC3; human) was 2 and the “Therapeutic Index = IC50 stimulated PBMC/IC50 cancer cell” value (PC3; human) was 2. For the same compound, the “cells in apoptosis (early and late apoptosis), total” value (MiaPaca2 cells [1]) was 28%, the “Caspase 3/7 induction / caspase activation profile” value (Caspase 3/7) was “already at 8 hours at and a really high level after 48 hours incubation” and the “pancreatic tumor size increase relative to initial tumor size” value ([2]; Example 6, high dose approximately 43 mg/kg (1150 μM, 100 μL/mouse) SC daily 28 days, for the time of treatment) was “less than 5 fold”. For the same compound, the “pancreatic tumor size increase relative to the initial size” value ([2]; Example 22, 40 mg/Kg SC daily 28 days, during the treatment period) was “less than 5 fold”, the Median survival ([2]; Example 22, 40 mg/Kg SC daily 28 days, vehicle 60 days) was 70 days and the tumor size increase ([2]; Example 22, 14 days after treatment was stopped, vehicle 14-fold) was 6 fold. The “in vivo antitumor activity compared with Cyproterone Acetate” value ([2]; Examples 5 and 6, FIG. 3, same animal model) was “antitumor activity higher than Cyproterone Acetate”, the cell cycle arrest (MiaPaca2 cells [3]) was “induces an S phase block at lower concentrations then a G2/M block at higher concentration” and the “Initiator (8 and 9) and Effector (3/7) caspase activities” value (Caspases 8, 9 and 3/7) was “induced Initiator (8 and 9) and Effector (3/7) caspase activities better than Enzalutamide”. For the same compound, the “Therapeutic Index = IC50 resting PBMC/IC50 cancer cell” value (HT29; Table IV) was 3 and the “Therapeutic Index = IC50 stimulated PBMC/IC50 cancer cell” value (HT29; Table VII) was 3.
